Data on 41 substances can be found in publication PMC12102759 (Protein Science : A Publication of the Protein Society, 2025).

Assay [1] relates to G3BP1 NFT2. Type of assay: binding, human. As to conditions: library DMS-CoV, bait G3BP1 NFT2, prey N, listed as aa = residue placed at this position, column sums to 1.
Assay [2] deals with PABPC1 PABC. Type of assay: binding, human. The conditions noted are these: DMS-BM library, bait PABPC1 PABC, row aa = residue at this position.
Setting [3] is: prey ATXN2, peptide KSTLNPNAKEFNPRSF, N = wild type.

With APRITFGGPSDSTGSN R3A (APAITFGGPSDSTGSN), the “DMS PSSM value, R (position 3)” value in assay [1] (peptide APRITFGGPSDSTGSN) was 0.0016.

For the substance APRITFGGPSDSTGSN P9K (APRITFGGKSDSTGSN), the “DMS PSSM value, P (position 9)” value in assay [1] (peptide APRITFGGPSDSTGSN) turned out to be 0.

Consider RNAPRITFGGPSDSTG R5G (RNAPGITFGGPSDSTG), for which the “DMS PSSM value, R (position 5)” value in assay [1] (peptide RNAPRITFGGPSDSTG) is 0.

“APRITFGGPSDSTGSN S15E (APRITFGGPSDSTGEN)”: the “DMS PSSM value, S (position 15)” value in assay [1] (peptide APRITFGGPSDSTGSN) is 0.0004817.

In the case of APRITFGGPSDSTGSN F6S (APRITSGGPSDSTGSN), in assay [1] (peptide APRITFGGPSDSTGSN), the “DMS PSSM value, F (position 6)” value amounted to 0.

As to “APRITFGGPSDSTGSN S10K (APRITFGGPKDSTGSN)”, in assay [1] (peptide APRITFGGPSDSTGSN), the “DMS PSSM value, S (position 10)” value was 0.006118.

APRITFGGPSDSTGSN A1M (MPRITFGGPSDSTGSN): in assay [1] (peptide APRITFGGPSDSTGSN), the “DMS PSSM value, A (position 1)” value is 0.03133.

Consider RNAPRITFGGPSDSTG I6F (RNAPRFTFGGPSDSTG), for which the “DMS PSSM value, I (position 6)” value in assay [1] (peptide RNAPRITFGGPSDSTG) is 0.

For the substance “RNAPRITFGGPSDSTG S14T (RNAPRITFGGPSDTTG)”, the “DMS PSSM value, S (position 14)” value in assay [1] (peptide RNAPRITFGGPSDSTG) amounted to 0.

For the substance APRITFGGPSDSTGSN T5K (APRIKFGGPSDSTGSN), the “DMS PSSM value, T (position 5)” value in assay [1] (peptide APRITFGGPSDSTGSN) was determined as 0.

For APRITFGGPSDSTGSN F6P (APRITPGGPSDSTGSN), the “DMS PSSM value, F (position 6)” value in assay [1] (peptide APRITFGGPSDSTGSN) is recorded as 0.

Turning to RNAPRITFGGPSDSTG R5H (RNAPHITFGGPSDSTG), the “DMS PSSM value, R (position 5)” value in assay [1] (peptide RNAPRITFGGPSDSTG) is listed as 0.001007.

“RNAPRITFGGPSDSTG P11H (RNAPRITFGGHSDSTG)”: in assay [1] (peptide RNAPRITFGGPSDSTG), the “DMS PSSM value, P (position 11)” value is 0.

For “RNAPRITFGGPSDSTG P11Q (RNAPRITFGGQSDSTG)”, in assay [1] (peptide RNAPRITFGGPSDSTG), the “DMS PSSM value, P (position 11)” value came out at 0.

In the case of APRITFGGPSDSTGSN F6I (APRITIGGPSDSTGSN), in assay [1] (peptide APRITFGGPSDSTGSN), the “DMS PSSM value, F (position 6)” value worked out at 0.

Consider APRITFGGPSDSTGSN P9D (APRITFGGDSDSTGSN), for which, in assay [1] (peptide APRITFGGPSDSTGSN), the “DMS PSSM value, P (position 9)” value worked out at 0.

Turning to APRITFGGPSDSTGSN G8K (APRITFGKPSDSTGSN), the “DMS PSSM value, G (position 8)” value in assay [1] (peptide APRITFGGPSDSTGSN) is 0.

“RNAPRITFGGPSDSTG D13E (RNAPRITFGGPSESTG)”: in assay [1] (peptide RNAPRITFGGPSDSTG), the “DMS PSSM value, D (position 13)” value stood at 0.

RNAPRITFGGPSDSTG I6M (RNAPRMTFGGPSDSTG): the “DMS PSSM value, I (position 6)” value in assay [1] (peptide RNAPRITFGGPSDSTG) worked out at 0.

As for RNAPRITFGGPSDSTG I6E (RNAPRETFGGPSDSTG), in assay [1] (peptide RNAPRITFGGPSDSTG), the “DMS PSSM value, I (position 6)” value is listed as 0.

With RNAPRITFGGPSDSTG G9N (RNAPRITFNGPSDSTG), in assay [1] (peptide RNAPRITFGGPSDSTG), the “DMS PSSM value, G (position 9)” value is on record as 0.

RNAPRITFGGPSDSTG T7D (RNAPRIDFGGPSDSTG): the “DMS PSSM value, T (position 7)” value in assay [1] (peptide RNAPRITFGGPSDSTG) was 0.

As for APRITFGGPSDSTGSN I4T (APRTTFGGPSDSTGSN), the “DMS PSSM value, I (position 4)” value in assay [1] (peptide APRITFGGPSDSTGSN) is 0.

In the case of RNAPRITFGGPSDSTG G9T (RNAPRITFTGPSDSTG), the “DMS PSSM value, G (position 9)” value in assay [1] (peptide RNAPRITFGGPSDSTG) turned out to be 0.

In the case of “APRITFGGPSDSTGSN S15D (APRITFGGPSDSTGDN)”, the “DMS PSSM value, S (position 15)” value in assay [1] (peptide APRITFGGPSDSTGSN) was determined as 0.002282.

In the case of APRITFGGPSDSTGSN I4P (APRPTFGGPSDSTGSN), the “DMS PSSM value, I (position 4)” value in assay [1] (peptide APRITFGGPSDSTGSN) is on record as 0.

On to “RNAPRITFGGPSDSTG D13H (RNAPRITFGGPSHSTG)”, for which the “DMS PSSM value, D (position 13)” value in assay [1] (peptide RNAPRITFGGPSDSTG) amounted to 0.

As for “APRITFGGPSDSTGSN T13V (APRITFGGPSDSVGSN)”, the “DMS PSSM value, T (position 13)” value in assay [1] (peptide APRITFGGPSDSTGSN) is on record as 0.7895.

For APRITFGGPSDSTGSN I4H (APRHTFGGPSDSTGSN), the “DMS PSSM value, I (position 4)” value in assay [1] (peptide APRITFGGPSDSTGSN) came out at 0.

For “RNAPRITFGGPSDSTG G10N (RNAPRITFGNPSDSTG)”, the “DMS PSSM value, G (position 10)” value in assay [1] (peptide RNAPRITFGGPSDSTG) was determined as 0.

As for RNAPRITFGGPSDSTG F8Q (RNAPRITQGGPSDSTG), in assay [1] (peptide RNAPRITFGGPSDSTG), the “DMS PSSM value, F (position 8)” value is 0.

On to “RNAPRITFGGPSDSTG G10W (RNAPRITFGWPSDSTG)”, for which the “DMS PSSM value, G (position 10)” value in assay [1] (peptide RNAPRITFGGPSDSTG) worked out at 0.

“TLNPNAKEFNPRSF(averaged) F14A (TLNPNAKEFNPRSA)”: in assay [2] (prey ATXN2, TLNPNAKEFNPRSF(averaged) over the two overlapping peptides, F = wild type), the “DMS-derived PSSM value (averaged), position F14” value was found to be 0.04899.

For KSTLNPNAKEFNPRSF N5A (KSTLAPNAKEFNPRSF), in assay [2] (setting [3]), the “DMS-derived PSSM value, position N5” value is 0.

In the case of “TLNPNAKEFNPRSF(averaged) N5K (TLNPKAKEFNPRSF)”, in assay [2] (prey ATXN2, TLNPNAKEFNPRSF(averaged) over the two overlapping peptides, N = wild type), the “DMS-derived PSSM value (averaged), position N5” value stood at 0.009917.

Consider TLNPNAKEFNPRSFSQ A6Y (TLNPNYKEFNPRSFSQ), for which the “DMS-derived PSSM value, position A6” value in assay [2] (prey ATXN2, peptide TLNPNAKEFNPRSFSQ, A = wild type) turned out to be 0.

In the case of “KSTLNPNAKEFNPRSF N12T (KSTLNPNAKEFTPRSF)”, in assay [2] (setting [3]), the “DMS-derived PSSM value, position N12” value turned out to be 0.02601.

For “KSTLNPNAKEFNPRSF P13E (KSTLNPNAKEFNERSF)”, the “DMS-derived PSSM value, position P13” value in assay [2] (prey ATXN2, peptide KSTLNPNAKEFNPRSF, P = wild type) was found to be 0.006076.

“TLNPNAKEFNPRSFSQ P11H (TLNPNAKEFNHRSFSQ)”: the “DMS-derived PSSM value, position P11” value in assay [2] (prey ATXN2, peptide TLNPNAKEFNPRSFSQ, P = wild type) is 0.157.

For KSTLNPNAKEFNPRSF N5H (KSTLHPNAKEFNPRSF), in assay [2] (setting [3]), the “DMS-derived PSSM value, position N5” value was 0.

For the substance “TLNPNAKEFNPRSFSQ R12L (TLNPNAKEFNPLSFSQ)”, in assay [2] (prey ATXN2, peptide TLNPNAKEFNPRSFSQ, R = wild type), the “DMS-derived PSSM value, position R12” value is recorded as 0.01731.
